This is an account of results in patent US12589111B2, “Pt(IV) chemotherapeutic prodrug and controlled release thereof for treatment of tumors” (PEKING UNIVERSITY, priority 2020, dated 2026).

The structures appear in SMILES notation.

A short description of the first data set: Ligand release of Pt(IV) complex 1 in different solutions after X-ray irradiation. Type of data set: physicochemical. To be noted: 100 μM in complete fetal bovine serum (FBS). The procedure: 2.5 Detection of Ligand Release of Pt(IV) Complex 1 in Different Solutions
A 10 mM stock solution of Pt(IV) complex 1 was prepared, and diluted to 100 μM in H2O. PBS, 5 mM Tyr, Trp, DMEM and CM (complete medium), FBS solution. After X-ray irradiation, 200 μL of ACN was added to each solution. The mixture was centrifuged, and the supernatant was then collected. The operation was repeated 2 more times, and the final concentration was ⅛ of the original concentration. Ligand release was detected by UPLC-MS and quantified by a standard curve of coumarin.
Turning to `CC(=O)[O][Pt]([Cl])([Cl])[O]C(C)=O.N.N` [Pt(IV) complex 1], the “reaction yield of ligand release” value is reported as “not much different from that in water”.

The data set is the same for the next values; noted with them: 100 μM; PBS, 5 mM Tyr, 5 mM Trp, DMEM, CM; X-ray, UPLC-MS.
With `CC(=O)[O][Pt]([Cl])([Cl])[O]C(C)=O.N.N` [Pt(IV) complex 1], the “release of axial ligands” value is listed as “achieved in all of the above solutions”.

A short description of another data set: Determination of release efficiency by UPLC-MS after X-ray irradiation. Type of data set: physicochemical. Conditions: 10 μM in pure water, deoxygenated, 60 Gy X-ray (4 Gy/min, 15 min); released divalent platinum drug by UPLC-MS. The procedure:
2.7 Determination of Release Efficiency by UPLC-MS
Corresponding tetravalent platinum complexes (compounds 1-66) were dissolved in DMSO to obtain tetravalent platinum stock solutions (10 mM), and then diluted to 10 μM with pure water. After deoxygenation, the solution was subjected to 60 Gy X-ray irradiation (4 Gy/min, 15 min). The reaction crude product was analyzed by UPLC-MS, and the released product was determined to be the corresponding divalent platinum drug by UPLC-MS. The concentration of the divalent platinum drug was determined by the external standard curve of the platinum drug, and the release efficiency was calculated.
For `CC(=O)[O][Pt]([NH2])([NH2])([Cl])([Cl])[O]C(C)=O` [Compound 1], the Release efficiency is 83.2%.
For the molecule `CCCCCCCCCCCCCCCCCCNC(=O)[O][Pt]([NH2])([NH2])([Cl])([Cl])[O]C(C)=O` [Compound 5], the Release efficiency came out at 73.9%.
As to `CCCCCCCCCCCCCCCCCC(=O)[O][Pt]1([O]C(=O)CCC(=O)O)[O]C(=O)C(=O)[O]1.N[C@@H]1CCCC[C@H]1N` [Compound 59], the Release efficiency stood at 82.0%.
In the case of `CCCCCCCCCCCCCCCCCCNC(=O)[O][Pt]1([O]C(=O)CN(C)C)[O]C(=O)C2(CCC2)C(=O)[O]1.N.N` [Compound 42], the Release efficiency was determined as 66.3%.
Same read-out and setting: with `CCCCCCCCCCCCCCCCNC(=O)[O][Pt]([NH2])([NH2])([Cl])([Cl])[O]C(=O)CCC(=O)O` [Compound 12] the figure was 77.4%; with `CCCCCCCCCCCCCCCCCCNC(=O)[O][Pt]([NH2])([NH2])([Cl])([Cl])[O]C(=O)CN(C)C` [Compound 20], 83.7%.
For the molecule `CCCCCCCCCCCCCCCC(=O)[O][Pt]1([O]C(=O)CCC(=O)O)[O]C(=O)C(=O)[O]1.N[C@@H]1CCCC[C@H]1N` [Compound 58], the Release efficiency was 81.3%.
Turning to `[NH2][Pt]([NH2])([Cl])([Cl])([O]C(=O)CCCCCN1C(=O)C=CC1=O)[O]C(=O)CCC(=O)O` [Compound 11], the Release efficiency is recorded as 73.9%.
The same measure, in the same setting: in the case of `CN(C)CC(=O)[O][Pt]([NH2])([NH2])([Cl])([Cl])[O]C(=O)CCCCCN1C(=O)C=CC1=O` [Compound 18] it was 73.5%; in that of `CN(C)CC(=O)[O][Pt]1([O]C(=O)CCCCCN2C(=O)C=CC2=O)[O]C(=O)C2(CCC2)C(=O)[O]1.N.N` [Compound 40], 68.9%; in that of `CCCCCCCCCCCCCCCCCCNC(=O)[O][Pt]1([O]C(=O)CCC(=O)O)[O]C(=O)C2(CCC2)C(=O)[O]1.N.N` [Compound 35], 73.5%.
`CCCCCCCCCCCCCCCCNC(=O)[O][Pt]([NH2])([NH2])([Cl])([Cl])[O]C(C)=O` [Compound 4]: the Release efficiency is on record as 79.5%.
The same measure, in the same setting: with `[NH2][Pt]([NH2])([Cl])([Cl])([O]C(=O)CCCc1ccc(I)cc1)[O]C(=O)CCC(=O)O` [Compound 10] the figure was 76.7%; with `CCCCCCCCCCCCCCCCNC(=O)[O][Pt]1([O]C(=O)CN(C)C)[O]C(=O)C(=O)[O]1.N[C@@H]1CCCC[C@H]1N` [Compound 63], 75.7%; with `CC(=O)[O][Pt]([NH2])([NH2])([Cl])([Cl])[O]C(=O)CN(C)C` [Compound 16], 71.9%.
Turning to `CN(C)CC(=O)[O][Pt]([NH2])([NH2])([Cl])([Cl])[O]C(=O)CCCc1ccc(I)cc1` [Compound 17], the Release efficiency is reported as 79.6%.
Take `N[C@@H]1CCCC[C@H]1N.O=C(O)CCC(=O)[O][Pt]1([O]C(=O)CCCc2ccc(I)cc2)[O]C(=O)C(=O)[O]1` [Compound 54]: the Release efficiency came out at 75.3%.
On the same count and under the same terms, in the case of `N.N.O=C(O)CCC(=O)[O][Pt]1([O]C(=O)CCCCCN2C(=O)C=CC2=O)[O]C(=O)C2(CCC2)C(=O)[O]1` [Compound 33] it was 67.7%; in that of `CC(=O)[O][Pt]1([O]C(=O)CN(C)C)[O]C(=O)C(=O)[O]1.N[C@@H]1CCCC[C@H]1N` [Compound 60], 81.3%.
Still for that read-out and setting: with `CCCCCCCCCCCCCCCCCCNC(=O)[O][Pt]([NH2])([NH2])([Cl])([Cl])[O]C(=O)CCC(=O)O` [Compound 13] the figure was 82.7%; with `CN(C)CC(=O)[O][Pt]1([O]C(=O)CCCCCN2C(=O)C=CC2=O)[O]C(=O)C(=O)[O]1.N[C@@H]1CCCC[C@H]1N` [Compound 62], 74.5%.
Consider `CN(C)CC(=O)[O][Pt]1([O]C(=O)CCCc2ccc(I)cc2)[O]C(=O)C2(CCC2)C(=O)[O]1.N.N` [Compound 39], for which the Release efficiency stood at 71.0%.
Take `N.N.O=C(O)CCC(=O)[O][Pt]1([O]C(=O)CCCc2ccc(I)cc2)[O]C(=O)C2(CCC2)C(=O)[O]1` [Compound 32]: the Release efficiency was determined as 64.6%.
Turning to `N[C@@H]1CCCC[C@H]1N.O=C(O)CCC(=O)[O][Pt]1([O]C(=O)CCCCCN2C(=O)C=CC2=O)[O]C(=O)C(=O)[O]1` [Compound 55], the Release efficiency amounted to 81.9%.
Turning to `CC(=O)[O][Pt]([NH2])([NH2])([Cl])([Cl])[O]C(=O)CCCCCN1C(=O)C=CC1=O` [Compound 3], the Release efficiency was determined as 80.3%.
The same measure, in the same setting: in the case of `CCCCCCCCCCCCCCCCCCNC(=O)[O][Pt]1([O]C(=O)CCC(=O)O)[O]C(=O)C(=O)[O]1.N[C@@H]1CCCC[C@H]1N` [Compound 57] it was 76.3%; in that of `CCCCCCCCCCCCCCCCNC(=O)[O][Pt]([NH2])([NH2])([Cl])([Cl])[O]C(=O)CN(C)C` [Compound 19], 78.5%; in that of `CCCCCCCCCCCCCCCCNC(=O)[O][Pt]1([NH2])([NH2])([O]C(C)=O)[O]C(=O)C2(CCC2)C(=O)[O]1` [Compound 26], 69.4%.
Turning to `[NH2][Pt]([NH2])([Cl])([Cl])([O]C(=O)CCC(=O)O)[O]C(=O)CCC(=O)O` [Compound 9], the Release efficiency is listed as 75.6%.
Same read-out and setting: with `CCCCCCCCCCCCCCCCCC(=O)[O][Pt]1([O]C(=O)CN(C)C)[O]C(=O)C(=O)[O]1.N[C@@H]1CCCC[C@H]1N` [Compound 66] the figure was 77.5%.
Take `CC(=O)[O][Pt]([NH2])([NH2])([Cl])([Cl])[O]C(=O)CCCc1ccc(I)cc1` [Compound 2]: the Release efficiency was determined as 85.7%.
On to `CCCCCCCCCCCCCCCCCCNC(=O)[O][Pt]1([O]C(=O)CN(C)C)[O]C(=O)C(=O)[O]1.N[C@@H]1CCCC[C@H]1N` [Compound 64], for which the Release efficiency is 82.2%.
Take `CCCCCCCCCCCCCCCC(=O)[O][Pt]1([O]C(=O)CN(C)C)[O]C(=O)C(=O)[O]1.N[C@@H]1CCCC[C@H]1N` [Compound 65]: the Release efficiency came out at 74.6%.
Still for that read-out and setting: in the case of `N.N.O=C(O)CCC(=O)[O][Pt]1([O]C(=O)CCC(=O)O)[O]C(=O)C2(CCC2)C(=O)[O]1` [Compound 31] it was 65.9%; in that of `N[C@@H]1CCCC[C@H]1N.O=C(O)CCC(=O)[O][Pt]1([O]C(=O)CCC(=O)O)[O]C(=O)C(=O)[O]1` [Compound 53], 76.7%; in that of `CCCCCCCCCCCCCCCCNC(=O)[O][Pt]1([O]C(=O)CCC(=O)O)[O]C(=O)C(=O)[O]1.N[C@@H]1CCCC[C@H]1N` [Compound 56], 80.2%.
As to `CC(=O)[O][Pt]([NH2])([NH2])([Cl])([Cl])[O]C(=O)CCC(=O)O` [Compound 8], the Release efficiency came out at 75.5%.
Still for that read-out and setting: with `CN(C)CC(=O)[O][Pt]1([O]C(=O)CCCc2ccc(I)cc2)[O]C(=O)C(=O)[O]1.N[C@@H]1CCCC[C@H]1N` [Compound 61] the figure was 73.7%.

Another data set in a line: Release of the corresponding platinum drug of Pt(IV)-(Suc)2 after γ-ray irradiation. In kind it is physicochemical. To be noted: deoxygenated, 60Co γ-rays; UPLC-MS, 195Pt NMR. The procedure:
2.6 Detection of the Release of the Corresponding Platinum Drug of Pt(IV)-(Suc)2
Pt(IV)-(Suc)2 was dissolved in 1 mL of deuterium water ([…]), and the mixture was adjusted to a pH of 7 with NaOH. After deoxygenation, the solution was exposed to 40 kGy γ-ray irradiation (^60Co source, 200 Gy/min, 200 min).
Determination of product by UPLC-MS (FIG. 3, b c)
After deoxygenation, the solution was exposed to 1 kGy γ-ray irradiation (^60Co source, 100 Gy/min, 10 min).
For the molecule `[NH2][Pt]1([NH2])([O]C(=O)CCC(=O)O)([O]C(=O)CCC(=O)O)[O]C(=O)C2(CCC2)C(=O)[O]1` [carboPt(IV)-(Suc)2], the “product released by γ-ray irradiation” value is on record as “release the corresponding Pt(II) drugs”.
Still for that read-out and setting: in the case of `N.N.O=C(O)CCC(=O)[O][Pt]([Cl])([Cl])[O]C(=O)CCC(=O)O` [cisPt(IV)-(Suc)2] it was “release the corresponding Pt(II) drugs”; in that of `NC1CCCCC1N.O=C(O)CCC(=O)[O][Pt]1([O]C(=O)CCC(=O)O)[O]C(=O)C(=O)[O]1` [oxaliPt(IV)-(Suc)2], “released product was oxaliplatin”.
